Test results from US5840843A, “Synthetic polypeptides as inhibitors of HIV-1” (priority 1995, dated 1998).
Bridge positions count the residues as written; N and C are the ends. Ends that are not written are not given here. I, II: the chains in the order shown.

Tests used:
[1] = test system: AZT-resistant mutant of HIV-1; assay: Inhibition of infection by AZT-resistant HIV-1 mutant; assay type: cell-based; settings: FIG. 6
Description: (§1) For virus inhibition assays, H9, MT-2 and U937 cells were used as target cells. Five HIV-1 isolates (IIIB, MN, RF, SF2, and an AZT-resistant mutant) were cultivated in MT-2 cells, collected, and aliquoted.
(§2) HIV-1 infectivity was determined by two distinct methods; an ELISA measuring HIV-1 core protein p24 production and a colorimetric assay for HIV-mediated cytopathogenesis. Briefly, 1×10^4 MT-2 cells in 96 well plates were infected with dilutions of HIV-1IIIB in 200 μl RPMI 1640 medium with 10% FBS. After 24 hrs., half of the culture medium was changed. On the fourth day after incubation at 37° C., 100 μl of culture supernatant was collected from each well and an equal volume of fresh medium was added to the wells. The collected supernatants were mixed with equal volumes of 5% Triton X-100 and assayed for p24 using a kit from Coulter Immunology (Hialeah, FL). On the sixth day post infection, an indicator XTT tetrazolium dye (1 mg/ml; 50μl/well; PolySciences, Inc., Warrington, Pa.) was added to the cells. After a 4 hr. period, intracellular formazan was determined calorimetrically at 450 nm. The percentage of cytopathogenesis was calculated using the following formula: [(OD450 in negative control-OD450 in experiment)/(OD450 in negative control-OD450 in positive control)] ×100.

HIV-1IIIB [2] = assay: Inhibition of HIV-1IIIB replication in MT-2 cells (p24 ELISA); assay type: cell-based
Description: as §1, §2
Twenty-nine peptides from HIV-1IIIB gp160 (gp120/gp41) and 21 peptides from V3 hypervariable loops of distinct HIV-1 isolates were screened for their inhibitory activity on HIV-1 replication and HIV-1-mediated cytopathogenesis in MT-2 cells.

HIV-1IIIB [3] = assay: Inhibition of HIV-1IIIB-mediated cytopathogenesis in MT-2 cells (XTT colorimetric assay); assay type: cell-based
Description: as §1, §2
Additionally, studies were performed to determine whether or not any of the peptides could inhibit the cytopathogenesis mediated by HIV-1.

[4] = test system: HIV-1IIIB infected H9 cells; assay: Inhibition of fusion of HIV-1IIIB infected H9 cells with uninfected H9 cells (syncytium count); assay type: cell-based
Description: The inhibitory effect of the peptide of the present invention on the fusion of HIV-1 infected cells with uninfected cells was also determined. In brief, 1.25×10^4 HIV-1IIIB infected H9 cells were mixed with the peptide and an equal number of uninfected H9 cells.

MT-2 cells = assay: Cytotoxicity of peptides for MT-2 cells; settings: for cytotoxicity: MT-2 cells
Description: Subsequently, cytotoxicity studies were performed using MT-2 cells at a final concentration of 12.5 μg/ml.

HIV-1IIIB [5] = assay: Inhibition of HIV-1IIIB replication in U937 cells (p24 production); assay type: cell-based; settings: monocytic cell line U937, FIG. 4
Description: as §1, §2

HIV-1 isolate MN = assay: Inhibition of infection by HIV-1 isolate MN; assay type: cell-based; settings: FIG. 6
Description: as §1, §2

HIV-1 isolate RF = assay: Inhibition of infection by HIV-1 isolate RF; assay type: cell-based; settings: FIG. 6
Description: as §1, §2

HIV-1 isolate SF2 = assay: Inhibition of infection by HIV-1 isolate SF2; assay type: cell-based; settings: FIG. 6
Description: as §1, §2

HIV-1 = settings: FIG. 7
Description: Rabbit antiserum directed against this peptide was prepared. […] The mixture was tested for antiviral activity.

Row | Compound | inhibition of infection (replication and cytopathogenesis) [1] | inhibition of infection (replication and cytopathogenesis) (HIV-1IIIB [2]; HIV-1 isolate IIIB, FIG. 6) | ED50 for inhibition of HIV-1IIIB replication (decrease of gag protein p24 production) (HIV-1IIIB [2]; MT-2 cells, FIG. 5) [µM] | inhibition of HIV-1 replication, dimer compared with monomer (HIV-1IIIB [2]; comparative assay, FIG. 8) | inhibition of HIV-1 replication (decrease of gag protein p24 synthesis) (HIV-1IIIB [2]; final concentration 12.5 μg/ml, MT-2 cells, HIV-1IIIB, FIG. 1) | ED50 for inhibition of cytopathogenesis mediated by HIV-1IIIB (HIV-1IIIB [3]; MT-2 cells, FIG. 5) [µM] | inhibition of cytopathogenesis mediated by HIV-1 (HIV-1IIIB [3]; MT-2 cells, HIV-1IIIB, FIG. 2) | inhibition of HIV-1-mediated cytopathogenesis, dimer compared with monomer (HIV-1IIIB [3]; comparative assay, FIG. 8) | ED50 for inhibition of cell fusion ([4]; HIV-1IIIB infected H9 cells, FIG. 5) [µM] | inhibition of cell fusion, dimer compared with monomer ([4]; comparative assay, FIG. 8) | cytotoxicity (MT-2 cells; concentration increased to 11.145 μM) | cytotoxicity (MT-2 cells; final concentration 12.5 μg/ml, FIG. 3) | 50% cytotoxic dose (CD50) (MT-2 cells; colorimetric assay) | inhibition of p24 production (HIV-1IIIB [5]) | inhibition of infection (replication and cytopathogenesis) (HIV-1 isolate MN) | inhibition of infection (replication and cytopathogenesis) (HIV-1 isolate RF) | inhibition of infection (replication and cytopathogenesis) (HIV-1 isolate SF2) | inhibitory activity on p24 production after incubation with antiserum (HIV-1; peptide 1 μg/ml incubated with rabbit anti-(637-666) antiserum, 37° C., 30 minutes) | inhibition of p24 production (HIV-1; peptide 1 μg/ml, in the absence of antiserum)
1 | Cc1cn([C@H]2C[C@H](N=[N+]=[N-])[C@@H](CO)O2)c(=O)[nH]c1=O [AZT, 3'azido-3'deoxythymidine, reference compound] | could not be effectively neutralized |  |  |  |  |  |  |  |  |  |  |  |  |  |  |  |  |  | 
2 | I: EWDREINNYTSLIHSLIEESQNQQEKNEQEGGC / II: EWDREINNYTSLIHSLIEESQNQQEKNEQEGGC (disulfide I:33-II:33) [peptide (637-666)] | effectively inhibited infections | effectively inhibited infections | 0.101 | much more effective | significantly inhibited HIV-1 replication | 0.142 | markedly inhibited cytopathogenesis | much more effective | 0.16 | much more effective | significant cytotoxicity remained undetectable | did not exhibit any cytotoxicity | > 11,145 nM | significantly inhibited p24 production | effectively inhibited infections | effectively inhibited infections | effectively inhibited infections | significantly blocked | significantly inhibited p24 production
